Measured values published in ChEMBL document CHEMBL1201862, “PubChem BioAssay data set” (2004).
Activity calls are given as the source filed them.

Experiments:
Type in all cases: functional
[1] = molecular target: Benomyl/methotrexate resistance protein (Candida albicans, UniProt P28873); assay: Candida albicans Mdr1 pump inhibition curves – singleplex, Cherry Pick1 hits, dose response (AID 588608)
[2] = molecular target: Multidrug resistance protein CDR1 (Candida albicans, UniProt P43071); assay: inhibition of Nile Red efflux via Candida CDR1 – S. cerevisiae AD1-8u, singleplex, Cherry Pick1 hits, dose response (AID 588606)
[3] = molecular target: Dual specificity tyrosine-phosphorylation-regulated kinase 1B (Homo sapiens, UniProt Q9Y463); assay: Navigating the Kinome. Panel member name: DYRK1B
[4] = molecular target: LIM domain kinase 1 (Homo sapiens, UniProt P53667); assay: Navigating the Kinome. Panel member name: LIMK1
[5] = molecular target: G protein-coupled receptor kinase 5 (Homo sapiens, UniProt P34947); assay: Navigating the Kinome. Panel member name: GPRK5
[6] = molecular target: Leukocyte tyrosine kinase receptor (Homo sapiens, UniProt P29376); assay: Navigating the Kinome. Panel member name: LTK
[7] = molecular target: T1, Tyrosine-protein kinase receptor TYRO3 (Homo sapiens, UniProt Q06418);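 further: TYRO3 value obtained as one member of a kinome-wide profiling panel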
T1 sequence (Q06418 whole entry): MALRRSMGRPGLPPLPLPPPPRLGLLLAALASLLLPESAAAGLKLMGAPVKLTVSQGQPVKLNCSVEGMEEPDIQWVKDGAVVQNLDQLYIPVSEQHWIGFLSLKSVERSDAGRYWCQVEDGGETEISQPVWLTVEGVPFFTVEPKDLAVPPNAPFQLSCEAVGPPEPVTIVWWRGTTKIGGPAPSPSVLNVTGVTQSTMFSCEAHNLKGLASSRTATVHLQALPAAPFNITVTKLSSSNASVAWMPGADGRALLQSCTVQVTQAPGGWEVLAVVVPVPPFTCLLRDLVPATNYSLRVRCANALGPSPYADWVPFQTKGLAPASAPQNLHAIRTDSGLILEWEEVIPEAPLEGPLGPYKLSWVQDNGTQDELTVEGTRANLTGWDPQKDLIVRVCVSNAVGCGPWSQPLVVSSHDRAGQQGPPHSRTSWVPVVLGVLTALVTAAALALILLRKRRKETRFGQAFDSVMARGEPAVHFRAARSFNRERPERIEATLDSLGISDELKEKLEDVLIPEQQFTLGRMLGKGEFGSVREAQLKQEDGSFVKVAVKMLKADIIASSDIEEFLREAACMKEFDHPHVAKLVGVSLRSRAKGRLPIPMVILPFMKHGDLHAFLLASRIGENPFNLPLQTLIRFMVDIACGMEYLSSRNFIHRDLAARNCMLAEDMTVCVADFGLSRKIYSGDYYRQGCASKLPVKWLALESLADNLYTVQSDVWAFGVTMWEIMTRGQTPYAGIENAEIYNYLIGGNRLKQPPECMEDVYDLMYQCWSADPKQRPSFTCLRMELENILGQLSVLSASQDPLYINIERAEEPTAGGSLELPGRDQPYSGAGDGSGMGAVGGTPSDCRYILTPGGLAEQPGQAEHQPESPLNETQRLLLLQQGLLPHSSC

[8] = molecular target: Leucine-rich repeat serine/threonine-protein kinase 2 (Homo sapiens, UniProt Q5S007);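 further: value from a broad kinome-wide panel profiling study in which LRRK2 was one of the kinases tested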
[9] = molecular target: Casein kinase I isoform alpha (Homo sapiens, UniProt P48729)
[10] = molecular target: T2, Serine/threonine-protein kinase Chk1 (Homo sapiens, UniProt O14757);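 further: measured as one member of a kinome-wide kinase profiling panel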
T2 sequence (O14757 whole entry): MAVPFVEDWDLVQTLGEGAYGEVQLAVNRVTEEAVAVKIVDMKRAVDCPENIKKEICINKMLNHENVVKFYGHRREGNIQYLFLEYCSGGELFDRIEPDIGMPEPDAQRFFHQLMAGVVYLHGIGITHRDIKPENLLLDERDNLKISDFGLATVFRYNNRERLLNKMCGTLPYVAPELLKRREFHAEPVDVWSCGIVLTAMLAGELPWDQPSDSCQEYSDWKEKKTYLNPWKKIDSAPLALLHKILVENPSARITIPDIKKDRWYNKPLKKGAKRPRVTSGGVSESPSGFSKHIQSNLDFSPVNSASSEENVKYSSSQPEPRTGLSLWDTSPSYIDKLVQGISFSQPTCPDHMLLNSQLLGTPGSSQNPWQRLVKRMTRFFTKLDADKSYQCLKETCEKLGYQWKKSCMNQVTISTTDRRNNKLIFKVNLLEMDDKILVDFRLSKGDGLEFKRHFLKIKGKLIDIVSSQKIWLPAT

[11] = molecular target: Dual specificity protein kinase CLK4 (Homo sapiens, UniProt Q9HAZ1)
[12] = molecular target: Vascular endothelial growth factor receptor 2 (Homo sapiens, UniProt P35968)
[13] = molecular target: T3, Aurora kinase A (Homo sapiens, UniProt O14965);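 further: value from the Navigating the Kinome kinase panel profiling, panel entry STK6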
T3 sequence (O14965 whole entry): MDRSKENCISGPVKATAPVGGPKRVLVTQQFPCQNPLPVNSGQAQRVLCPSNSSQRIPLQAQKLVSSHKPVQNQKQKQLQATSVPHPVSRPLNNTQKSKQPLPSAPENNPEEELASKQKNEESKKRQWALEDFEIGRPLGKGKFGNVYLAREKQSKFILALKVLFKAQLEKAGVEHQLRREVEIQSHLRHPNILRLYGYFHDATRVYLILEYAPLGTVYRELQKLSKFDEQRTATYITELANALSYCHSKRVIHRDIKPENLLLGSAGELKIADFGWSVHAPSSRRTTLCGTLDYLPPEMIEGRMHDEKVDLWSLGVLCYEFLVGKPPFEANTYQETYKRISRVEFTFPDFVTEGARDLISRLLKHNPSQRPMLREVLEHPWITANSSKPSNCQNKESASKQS

[14] = molecular target: Aurora kinase B (Homo sapiens, UniProt Q96GD4)
[15] = molecular target: Melanin-concentrating hormone receptor 1 (Homo sapiens, UniProt Q99705); assay: Late-stage fluorescence-based counterscreen for antagonists of the G-protein coupled receptor 7 (GPR7): cell-based dose response assay to identify antagonists of the melanin-concentrating hormone receptor 1 (MCHR1) Set 5.
[16] = molecular target: Serine/threonine-protein kinase pim-1 (Homo sapiens, UniProt P11309)
[17] = molecular target: Mitogen-activated protein kinase kinase kinase kinase 2 (Homo sapiens, UniProt Q12851);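 further: measured as one member of a kinome-wide kinase panel, with MAP4K2 as the panel entry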
[18] = molecular target: Cyclin-dependent kinase 8 (Homo sapiens, UniProt P49336); assay: Navigating the Kinome. Panel member name: CDK8
[19] = molecular target: Dual specificity mitogen-activated protein kinase kinase 2 (Homo sapiens, UniProt P36507); assay: Navigating the Kinome. Panel member name: MAP2K2
[20] = molecular target: T4, Multidrug resistance protein CDR2 (Candida albicans (strain SC5314 / ATCC MYA-2876) (Yeast), UniProt P78595); assay: inhibition of Nile Red efflux via Candida CDR2 – S. cerevisiae AD1-8u, singleplex, Cherry Pick1 hits, dose response (AID 588604)
T4 sequence (P78595 whole entry): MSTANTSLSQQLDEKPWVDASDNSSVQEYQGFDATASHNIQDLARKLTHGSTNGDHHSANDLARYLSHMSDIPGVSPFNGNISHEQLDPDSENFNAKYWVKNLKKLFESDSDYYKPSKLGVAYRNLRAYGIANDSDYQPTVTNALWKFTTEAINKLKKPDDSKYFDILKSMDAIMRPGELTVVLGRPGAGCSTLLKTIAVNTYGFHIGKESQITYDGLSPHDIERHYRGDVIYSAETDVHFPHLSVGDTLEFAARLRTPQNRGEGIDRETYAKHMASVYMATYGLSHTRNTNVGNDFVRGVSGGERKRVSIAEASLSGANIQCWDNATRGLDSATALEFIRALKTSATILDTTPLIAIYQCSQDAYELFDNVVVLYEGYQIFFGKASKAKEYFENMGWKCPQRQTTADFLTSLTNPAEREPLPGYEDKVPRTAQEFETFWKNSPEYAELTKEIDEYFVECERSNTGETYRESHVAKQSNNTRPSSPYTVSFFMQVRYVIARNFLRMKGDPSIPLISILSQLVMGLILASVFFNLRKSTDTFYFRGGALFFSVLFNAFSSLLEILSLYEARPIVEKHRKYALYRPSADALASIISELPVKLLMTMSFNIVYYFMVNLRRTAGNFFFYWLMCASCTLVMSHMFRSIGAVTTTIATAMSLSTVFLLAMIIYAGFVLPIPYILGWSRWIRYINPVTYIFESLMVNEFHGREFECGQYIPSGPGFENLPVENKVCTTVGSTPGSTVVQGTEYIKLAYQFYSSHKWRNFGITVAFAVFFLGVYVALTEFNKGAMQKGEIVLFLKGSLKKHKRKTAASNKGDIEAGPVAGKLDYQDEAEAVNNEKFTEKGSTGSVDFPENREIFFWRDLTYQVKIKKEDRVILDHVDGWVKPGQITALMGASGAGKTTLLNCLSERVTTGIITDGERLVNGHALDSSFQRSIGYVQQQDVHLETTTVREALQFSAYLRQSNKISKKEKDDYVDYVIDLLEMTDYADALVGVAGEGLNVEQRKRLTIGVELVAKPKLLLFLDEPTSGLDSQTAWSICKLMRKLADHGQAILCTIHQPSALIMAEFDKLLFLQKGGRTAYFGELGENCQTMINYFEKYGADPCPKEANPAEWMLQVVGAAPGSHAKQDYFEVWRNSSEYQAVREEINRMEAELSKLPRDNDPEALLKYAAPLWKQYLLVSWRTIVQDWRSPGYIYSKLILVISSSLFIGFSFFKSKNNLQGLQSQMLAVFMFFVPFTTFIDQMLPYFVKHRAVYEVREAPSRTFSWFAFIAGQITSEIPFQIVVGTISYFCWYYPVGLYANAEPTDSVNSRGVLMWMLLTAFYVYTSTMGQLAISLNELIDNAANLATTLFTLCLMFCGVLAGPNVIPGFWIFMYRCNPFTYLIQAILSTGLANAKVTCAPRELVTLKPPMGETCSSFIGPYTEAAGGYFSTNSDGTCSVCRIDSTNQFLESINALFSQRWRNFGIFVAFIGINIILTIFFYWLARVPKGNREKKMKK

[21] = molecular target: T5, Small ubiquitin-related modifier 1 (Homo sapiens, UniProt P63165); assay: SUMO1 protein interaction blockers, potency – biochemical, fluorescence polarization, uHTS hits, dose response (AID 624382); details: read-out: IC50_Mean
[22] = molecular target: T6, Insulin-degrading enzyme (Homo sapiens, UniProt P14735); assay: Dose Response: Fluorescence polarization-based cell-based high throughput dose response assay for inhibitors of insulin-degrading enzyme (IDE). [Related pubchem assays: 434962 (Primary screen (IDE inhibitors in singlicate)), 449730 (Counterscreen (Cytotoxicity in triplicate)), 435028 (Confirmation (IDE inhibitors in triplicate)), 434984 (Summary …
T6 sequence (P14735 whole entry): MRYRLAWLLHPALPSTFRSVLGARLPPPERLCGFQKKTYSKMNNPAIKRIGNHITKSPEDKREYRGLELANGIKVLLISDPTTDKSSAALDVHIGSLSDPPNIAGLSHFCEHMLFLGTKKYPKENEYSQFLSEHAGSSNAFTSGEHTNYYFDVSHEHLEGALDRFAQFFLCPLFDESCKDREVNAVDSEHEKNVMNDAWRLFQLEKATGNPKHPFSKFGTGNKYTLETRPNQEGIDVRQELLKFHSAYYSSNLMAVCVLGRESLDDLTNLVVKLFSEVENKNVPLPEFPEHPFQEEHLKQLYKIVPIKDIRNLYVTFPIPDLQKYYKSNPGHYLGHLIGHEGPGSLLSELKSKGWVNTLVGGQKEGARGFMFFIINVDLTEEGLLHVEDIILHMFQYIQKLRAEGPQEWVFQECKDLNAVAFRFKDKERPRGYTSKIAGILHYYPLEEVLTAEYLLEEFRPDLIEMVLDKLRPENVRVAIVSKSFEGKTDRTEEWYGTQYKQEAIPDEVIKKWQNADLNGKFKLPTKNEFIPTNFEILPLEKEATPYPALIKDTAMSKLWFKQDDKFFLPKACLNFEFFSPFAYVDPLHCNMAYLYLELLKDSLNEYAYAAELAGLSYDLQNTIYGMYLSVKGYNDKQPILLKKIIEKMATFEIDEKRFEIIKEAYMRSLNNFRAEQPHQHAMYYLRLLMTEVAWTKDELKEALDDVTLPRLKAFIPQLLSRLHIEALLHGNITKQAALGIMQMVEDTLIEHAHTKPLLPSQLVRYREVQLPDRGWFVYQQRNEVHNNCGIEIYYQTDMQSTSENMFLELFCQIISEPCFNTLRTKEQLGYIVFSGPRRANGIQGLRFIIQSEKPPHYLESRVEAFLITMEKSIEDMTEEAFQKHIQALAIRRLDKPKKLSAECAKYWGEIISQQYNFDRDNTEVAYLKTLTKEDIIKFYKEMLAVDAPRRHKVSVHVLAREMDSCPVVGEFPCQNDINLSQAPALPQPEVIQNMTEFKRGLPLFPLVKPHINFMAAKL

[23] = Counterscreen for IDE inhibitors: Luminescence-based cell-based high throughput dose response assay to identify compounds that are cytotoxic to HEK cells. [Related pubchem assays: 434962 (Primary screen (IDE inhibitors in singlicate)), 449730 (Counterscreen (Cytotoxicity in triplicate)), 435028 (Confirmation (IDE inhibitors in triplicate)) …; details: HEK293
[24] = molecular target: T5, Small ubiquitin-related modifier 1; assay: SUMO1 protein-protein binding blockers, potency – biochemical, FRET, dose response (AID 624383); details: read-out: IC50_Mean

T5 sequence (P63165 whole entry): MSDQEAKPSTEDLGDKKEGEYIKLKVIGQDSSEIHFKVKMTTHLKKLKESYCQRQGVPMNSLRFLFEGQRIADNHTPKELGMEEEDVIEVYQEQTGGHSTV
Chain of Leucine-rich repeat serine/threonine-protein kinase 2 (Q5S007 whole entry, canonical isoform): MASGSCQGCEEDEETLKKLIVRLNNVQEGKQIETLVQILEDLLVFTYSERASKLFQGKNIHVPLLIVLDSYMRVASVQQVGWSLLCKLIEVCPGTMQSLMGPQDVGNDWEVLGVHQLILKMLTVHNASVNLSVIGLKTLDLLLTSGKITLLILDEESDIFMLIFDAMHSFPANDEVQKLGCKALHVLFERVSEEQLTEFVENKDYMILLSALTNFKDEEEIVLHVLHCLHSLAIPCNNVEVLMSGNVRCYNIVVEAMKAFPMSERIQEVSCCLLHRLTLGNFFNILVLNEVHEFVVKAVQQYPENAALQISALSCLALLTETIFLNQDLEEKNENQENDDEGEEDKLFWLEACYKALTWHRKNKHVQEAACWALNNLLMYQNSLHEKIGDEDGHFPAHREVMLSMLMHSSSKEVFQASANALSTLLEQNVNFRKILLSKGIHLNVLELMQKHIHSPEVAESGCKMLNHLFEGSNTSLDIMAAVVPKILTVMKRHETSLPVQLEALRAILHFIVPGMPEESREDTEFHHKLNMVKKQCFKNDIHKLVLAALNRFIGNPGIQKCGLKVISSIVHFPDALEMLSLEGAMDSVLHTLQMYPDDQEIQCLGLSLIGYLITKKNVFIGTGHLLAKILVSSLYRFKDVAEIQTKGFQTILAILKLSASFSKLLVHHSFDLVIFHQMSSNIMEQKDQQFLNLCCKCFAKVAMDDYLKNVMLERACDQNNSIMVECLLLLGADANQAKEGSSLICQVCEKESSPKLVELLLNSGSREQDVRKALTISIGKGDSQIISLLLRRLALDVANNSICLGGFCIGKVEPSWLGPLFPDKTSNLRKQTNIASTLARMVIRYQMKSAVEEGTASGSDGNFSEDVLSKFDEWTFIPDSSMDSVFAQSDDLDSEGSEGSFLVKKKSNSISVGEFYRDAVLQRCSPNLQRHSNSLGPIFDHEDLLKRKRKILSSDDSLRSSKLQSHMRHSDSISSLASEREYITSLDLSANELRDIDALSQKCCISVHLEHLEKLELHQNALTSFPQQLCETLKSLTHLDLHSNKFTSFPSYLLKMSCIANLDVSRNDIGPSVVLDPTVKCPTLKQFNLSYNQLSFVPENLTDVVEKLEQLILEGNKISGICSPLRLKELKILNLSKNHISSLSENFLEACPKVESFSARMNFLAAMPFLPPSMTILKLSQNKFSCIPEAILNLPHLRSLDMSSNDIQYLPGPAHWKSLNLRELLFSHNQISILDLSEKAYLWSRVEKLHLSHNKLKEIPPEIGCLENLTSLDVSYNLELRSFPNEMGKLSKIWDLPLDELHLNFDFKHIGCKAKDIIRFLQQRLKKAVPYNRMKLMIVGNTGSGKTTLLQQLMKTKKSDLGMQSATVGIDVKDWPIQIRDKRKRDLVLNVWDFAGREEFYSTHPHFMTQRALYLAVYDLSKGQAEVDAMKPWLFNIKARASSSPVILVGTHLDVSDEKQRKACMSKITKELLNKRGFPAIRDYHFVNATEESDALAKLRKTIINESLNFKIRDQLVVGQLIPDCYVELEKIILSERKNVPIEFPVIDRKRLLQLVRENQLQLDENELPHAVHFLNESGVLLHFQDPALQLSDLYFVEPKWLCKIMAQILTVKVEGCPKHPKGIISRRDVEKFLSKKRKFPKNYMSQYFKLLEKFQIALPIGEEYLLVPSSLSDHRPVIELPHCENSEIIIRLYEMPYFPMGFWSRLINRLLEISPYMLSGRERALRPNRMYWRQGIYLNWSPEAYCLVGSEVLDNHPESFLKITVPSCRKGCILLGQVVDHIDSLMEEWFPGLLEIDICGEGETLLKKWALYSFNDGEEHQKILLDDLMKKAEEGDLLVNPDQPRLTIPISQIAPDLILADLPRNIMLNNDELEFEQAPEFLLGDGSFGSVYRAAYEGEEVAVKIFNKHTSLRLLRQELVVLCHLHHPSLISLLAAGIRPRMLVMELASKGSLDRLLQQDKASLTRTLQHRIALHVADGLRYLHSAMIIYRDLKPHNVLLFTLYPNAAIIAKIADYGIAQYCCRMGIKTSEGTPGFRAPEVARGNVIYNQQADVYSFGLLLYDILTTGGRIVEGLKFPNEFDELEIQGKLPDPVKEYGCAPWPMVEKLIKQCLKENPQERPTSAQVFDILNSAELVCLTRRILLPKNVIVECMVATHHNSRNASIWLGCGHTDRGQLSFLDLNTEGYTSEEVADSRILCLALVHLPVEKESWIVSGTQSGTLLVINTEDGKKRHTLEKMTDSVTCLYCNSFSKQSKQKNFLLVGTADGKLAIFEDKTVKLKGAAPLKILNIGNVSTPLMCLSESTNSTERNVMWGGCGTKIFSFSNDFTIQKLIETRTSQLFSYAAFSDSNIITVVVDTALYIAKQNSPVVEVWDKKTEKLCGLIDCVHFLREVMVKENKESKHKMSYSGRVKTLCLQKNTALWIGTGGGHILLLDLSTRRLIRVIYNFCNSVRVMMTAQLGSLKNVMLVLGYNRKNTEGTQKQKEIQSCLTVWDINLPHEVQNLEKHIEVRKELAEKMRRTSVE
Chain of Cyclin-dependent kinase 8 (P49336 whole entry): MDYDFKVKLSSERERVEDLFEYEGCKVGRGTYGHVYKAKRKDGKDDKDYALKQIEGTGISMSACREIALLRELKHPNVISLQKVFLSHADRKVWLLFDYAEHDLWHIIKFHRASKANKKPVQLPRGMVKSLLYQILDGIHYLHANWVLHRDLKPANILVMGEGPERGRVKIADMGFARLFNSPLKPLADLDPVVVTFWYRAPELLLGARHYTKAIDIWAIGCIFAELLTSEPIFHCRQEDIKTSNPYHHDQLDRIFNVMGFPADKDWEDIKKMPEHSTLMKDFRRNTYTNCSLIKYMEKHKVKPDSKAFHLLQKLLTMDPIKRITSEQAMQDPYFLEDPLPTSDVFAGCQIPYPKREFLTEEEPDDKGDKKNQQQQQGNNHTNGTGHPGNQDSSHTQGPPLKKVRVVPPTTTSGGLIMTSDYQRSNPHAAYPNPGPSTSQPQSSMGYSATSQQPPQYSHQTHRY
Chain of Mitogen-activated protein kinase kinase kinase kinase 2 (Q12851 whole entry): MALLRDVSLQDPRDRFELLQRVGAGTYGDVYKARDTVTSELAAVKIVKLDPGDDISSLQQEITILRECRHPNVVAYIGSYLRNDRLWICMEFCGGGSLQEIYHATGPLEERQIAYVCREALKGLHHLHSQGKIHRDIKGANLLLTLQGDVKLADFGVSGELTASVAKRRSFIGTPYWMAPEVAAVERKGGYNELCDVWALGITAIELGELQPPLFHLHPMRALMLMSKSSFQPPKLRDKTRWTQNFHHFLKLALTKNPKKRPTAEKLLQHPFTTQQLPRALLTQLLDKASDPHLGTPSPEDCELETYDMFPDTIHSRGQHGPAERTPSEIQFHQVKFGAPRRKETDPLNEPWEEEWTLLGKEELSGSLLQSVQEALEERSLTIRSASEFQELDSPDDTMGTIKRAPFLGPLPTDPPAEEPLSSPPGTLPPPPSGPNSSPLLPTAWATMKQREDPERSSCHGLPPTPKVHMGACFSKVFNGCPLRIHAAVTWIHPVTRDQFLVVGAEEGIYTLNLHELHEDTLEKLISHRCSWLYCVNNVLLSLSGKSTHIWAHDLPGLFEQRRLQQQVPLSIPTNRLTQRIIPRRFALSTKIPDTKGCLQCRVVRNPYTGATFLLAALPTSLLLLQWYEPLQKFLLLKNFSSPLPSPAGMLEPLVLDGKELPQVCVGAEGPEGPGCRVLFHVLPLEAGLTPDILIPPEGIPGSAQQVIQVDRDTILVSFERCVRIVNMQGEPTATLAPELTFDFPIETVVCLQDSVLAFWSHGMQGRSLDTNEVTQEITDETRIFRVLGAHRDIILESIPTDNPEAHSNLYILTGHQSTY
Chain of Dual specificity tyrosine-phosphorylation-regulated kinase 1B (Q9Y463 whole entry, the tested form may be a part): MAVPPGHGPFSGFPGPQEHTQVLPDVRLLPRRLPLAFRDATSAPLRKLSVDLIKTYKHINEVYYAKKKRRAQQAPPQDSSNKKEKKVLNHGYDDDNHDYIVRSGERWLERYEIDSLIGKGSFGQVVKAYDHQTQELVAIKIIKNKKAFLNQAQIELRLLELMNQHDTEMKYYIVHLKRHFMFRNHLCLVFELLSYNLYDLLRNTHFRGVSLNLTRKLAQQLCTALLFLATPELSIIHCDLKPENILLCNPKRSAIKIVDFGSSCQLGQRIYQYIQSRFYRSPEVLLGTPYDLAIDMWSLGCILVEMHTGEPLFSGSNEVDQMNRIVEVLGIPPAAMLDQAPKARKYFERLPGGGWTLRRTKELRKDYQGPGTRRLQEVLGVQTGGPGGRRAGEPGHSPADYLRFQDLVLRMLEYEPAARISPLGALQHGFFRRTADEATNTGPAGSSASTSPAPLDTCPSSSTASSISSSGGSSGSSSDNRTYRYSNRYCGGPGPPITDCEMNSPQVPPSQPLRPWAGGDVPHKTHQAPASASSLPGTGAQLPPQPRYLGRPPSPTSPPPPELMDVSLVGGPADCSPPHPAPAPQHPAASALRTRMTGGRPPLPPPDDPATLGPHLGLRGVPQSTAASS
Chain of Dual specificity protein kinase CLK4 (Q9HAZ1 whole entry): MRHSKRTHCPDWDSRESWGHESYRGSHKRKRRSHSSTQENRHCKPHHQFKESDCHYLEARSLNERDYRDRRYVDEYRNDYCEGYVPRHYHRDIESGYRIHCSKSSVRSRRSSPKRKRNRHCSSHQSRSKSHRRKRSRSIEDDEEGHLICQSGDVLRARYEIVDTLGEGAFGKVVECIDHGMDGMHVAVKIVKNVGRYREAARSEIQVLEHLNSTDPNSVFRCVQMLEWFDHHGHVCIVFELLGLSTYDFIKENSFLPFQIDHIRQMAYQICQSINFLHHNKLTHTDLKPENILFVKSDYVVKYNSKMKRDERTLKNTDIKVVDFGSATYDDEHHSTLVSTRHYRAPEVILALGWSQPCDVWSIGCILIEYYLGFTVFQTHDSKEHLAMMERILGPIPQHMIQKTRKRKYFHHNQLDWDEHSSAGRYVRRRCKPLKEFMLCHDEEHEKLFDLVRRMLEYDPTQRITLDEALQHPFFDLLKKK

## COc1ccc2sc(-c3ccccc3OC)c(-c3ccc(OCCN4CCOCC4)cc3)c2c1
[1]
  EC50: 10.6 µM (active)
[2]
  EC50: 10 µM (active)

## Nc1nnc2cccc(Cl)n12
[3]
  Ki: 63.1 µM (active)
[4]
  Ki: 63.1 µM (active)
[5]
  Ki: 50.1 µM (active)
[6]
  Ki: 100 µM (active)
[7]
  Ki: 50.1 µM (active)
[8]
  Ki: 100 µM (active)
[9]
  Ki: 79.4 µM (active)
[10]
  Ki: 63.1 µM (active)
[11]
  Ki: 63.1 µM (active)

## CC(C)CC(CO)NC(=O)C=Cc1cnc(N)c2ccccc12 (centres undefined)
[12]
  Ki: > 5.01 µM (inactive)
[13]
  Ki: 1.58 µM (active)
[14]
  Ki: 0.0158 µM (active)

## O=c1c(Oc2ccc3c(c2)CCC3)c(Cl)cnn1Cc1cccc2ccccc12
[15]
  IC50: 17.9 µM (inactive)

## Nc1cc2c(Oc3ccc(Cl)cc3)cncc2s1
[16]
  Ki: 2.51 µM (active)
[17]
  Ki: 2.51 µM (active)
[18]
  Ki: 1 µM (active)
[19]
  Ki: 1.26 µM (active)

## O=C1Nc2ccccc2/C1=C/c1c[nH]c(-c2ccccc2)n1
[20]
  EC50: 3.89 µM (active)
[21]
  IC50: > 66.6 µM (inactive)
[22]
  IC50: > 55.9 µM (not active)
[23]
  IC50: 18.1 µM (not active)
[24]
  IC50: 4.96 µM (active)
